According to patent publication US20070154452A1, “Therapeutic agent for pancreas cancer” (ORIENT CANCER THERAPY, priority 2004, published 2007):
Where a name gives a salt, the structure may show the parent alone.

Key:
Format in all cases: in vivo, human
Th1/Th2 = Th1/Th2 before and after administration of Gemzar; conditions: pancreas cancer, 8 cases, before and after Gemzar 1000 mg/mm^2 for three weeks then a week break, FIG. 3
Source text: Gemcitabine hydrochloride (Gemzar™) is an anticancer agent developed by Eli Lilly and Company. This Gemzar was approved to apply for insurance for pancreas cancer in April in 2001. […] Inhibitory effects were also not observed in the ratios of NK cells (8 cases), perforin-producing NK cells (8 cases), NKT cells (8 cases) and perforin-producing NKT cells (8 cases) to total lymphocytes (FIG. 4).

IL-12 = IL-12 production of the patients' peripheral blood monocyte fraction (ELISA); conditions: pancreas cancer, 8 cases, before and after Gemzar 1000 mg/mm^2 for three weeks then a week break, FIG. 3
Method: Firstly, a monocyte fraction is separated from blood for preparation. After heparinized peripheral blood is diluted twofold with Phosphate Buffer Saline (PBS) and mixed, the mixture is overlaid on Ficoll-Conray solution (specific gravity 1.077), centrifuged at […] for 20 minutes to collect a monocyte fraction. After washing it, RPMI-1640 medium added with 10% fetal bovine serum (FBS) is added and prepared such that the cell number becomes 1×10^6. Into 200 μl of the obtained cell suspension, Phytohemagglutinin (supplied by DIFCO) is added into a concentration of 20 μg/ml, then cultured it in a 96-well microplate in the presence of 5% CO2 at 37° C. for 24 hours to obtain a sample for measuring two kinds of cytokines in the cultured cell solution. To measure the amount of IL-12, a measuring kit based on enzyme immunoassay (ELISA) available from, for example, R&D SYSTEMS and MBL is used, though well known clinical and biochemical examinations can be used. Herein, a measuring kit supplied by R&D SYSTEMS was used. In practice, into each well of a 96-well microplate, 50 μl of measuring diluent of Assay Diluent RD1F, and 200 μl of standard or sample prepared from the preparation method for measuring cytokines described above were dispensed, and then allowed it to stand and react at room temperature for 2 hours. […] The amount of IL-12 is expressed as pg/ml. […]

NK cells and NKT cells = test: Ratios of NK, NKT and perforin-producing cells to total lymphocytes (flow cytometry); conditions: pancreas cancer, 8 cases, before and after Gemzar, FIG. 4
Method: The measurement of NKT cells having NKR-P1 can be conducted by measuring cell surface antigens (CD3 and CD161 ) which are specifically presented on the NKT cell surface. In particular, lymphocytes in peripheral blood are tested for cells of CD3 positive and CD161 positive [CD3 (+) and CD161 (+)]. Thus, CD3 and CD161 which are cell surface antigens on NKT cell are measured by Two Color assay which uses monoclonal antibodies and flow cytometry. Here, activated NKT cells mean that the ratio of NKT [CD3 (+) and CD161 (+)] cells in lymphocytes is 10% or more, and more preferably 16% or more. The ability of activating NKT cell means the function which can increase NKT cell ratio by 10% or more, and more preferably 16% or more, or which can further increase NKT cell ratio more than that before administering a certain substance. Likewise, [CD3 (−) and CD161 (+) ] means to assay for CD3 negative and CD161 positive cells. This method is useful in measurement of NK cells. In addition, CD8 (+) means to assay for CD8 positive cells. This method is useful in measurement of CTL activity. In the Examples, bloods from cancer patients were used, and cells in blood were separated into positive and negative for cell surface antigens, CD3, CD161 and CD8, and each cell ratio was measured by Two Color assay using flow cytometry following a conventional manner. At this time, monoclonal antibodies used against CD3 , CD161 and CD8 were supplied by Coulter or Becton & Dickinson respectively. For lymphocytes in peripheral blood, two of CD3 , CD161 and CD8 of cell surface antigens and perforin are measured by Three Color assay using flow cytometry following a conventional manner. Specifically, into a collected blood, a fixative solution is added to fix cells, then after adding a membrane permeabilizer, an anti-perforin antibody (supplied by Pharmingen) is added for reaction, further secondary antibody labeled with PRE-Cy5 (from DAKO) is added for reaction, then anti-CD3-PE (Coulter 6604627) antibody and anti-CD161-FITC (B-D) antibody are added for reaction, thereafter subjected to measurement by flow cytometry. They were abbreviated as P or PER in figures and tables.

IFNγ = IFNγ production of the patients' peripheral blood monocyte fraction (EIA); parameters: dose or concentration left out as unconfirmed; conditions: pancreas cancer, 8 cases, before and after Gemzar for three weeks then a week break, FIG. 3
Method: Firstly, a monocyte fraction is separated from blood for preparation. After heparinized peripheral blood is diluted twofold with Phosphate Buffer Saline (PBS) and mixed, the mixture is overlaid on Ficoll-Conray solution (specific gravity 1.077), centrifuged at […] for 20 minutes to collect a monocyte fraction. After washing it, RPMI-1640 medium added with 10% fetal bovine serum (FBS) is added and prepared such that the cell number becomes 1×10^6. Into 200 μl of the obtained cell suspension, Phytohemagglutinin (supplied by DIFCO) is added into a concentration of 20 μg/ml, then cultured it in a 96-well microplate in the presence of 5% CO2 at 37° C. for 24 hours to obtain a sample for measuring two kinds of cytokines in the cultured cell solution. The measurement of IFNγ was conducted by enzyme immunoassay (EIA method) using […] kit from BioSource Europe S. In practice, into a each well of a 96-well microplate, 50 μl of standard or the twofold dilution of prepared sample described above was dispensed, then 50 μl of anti-IFNγ antibody labeled with HRP was dispensed, and further allowed to react for 2 hours at room temperature with shaking. […] The amount of IFNγ is expressed as IU/ml.

Nc1ccn([C@@H]2O[C@H](CO)[C@@H](O)C2(F)F)c(=O)n1 [Gemzar, gemcitabine hydrochloride]
not observed: effects inhibiting cytokines: Th1/Th2 (Th1/Th2) | effects inhibiting cytokines: IL-12 (IL-12) | inhibitory effects on ratio of NK cells to total lymphocytes (NK cells and NKT cells) | inhibitory effects on ratio of NKT cells to total lymphocytes (NK cells and NKT cells) | inhibitory effects on ratio of perforin-producing NK cells to total lymphocytes (NK cells and NKT cells) | inhibitory effects on ratio of perforin-producing NKT cells to total lymphocytes (NK cells and NKT cells) | effects inhibiting cytokines: IFNγ (IFNγ)
